This is an account of results in US11766496B2, “Antimicrobial fabric freshening compositions containing octenidine dihydrochloride” (The Procter & Gamble Company, priority 2019, dated 2023).

≈ marks a conversion by molar mass, not a printed value.

Assay type in all cases: cell-based
The test system of assay [1] is Escherichia coli (E. coli—ATCC #8739). The assay can be described thus: Minimum Biocidal Concentration (MBC) in suspension. How it is done: (§1) The antimicrobial efficacy of the antimicrobial agent in the composition is determined by measuring its Minimum Biocidal Concentration (MBC). The MBC is defined as the lowest absolute concentration of the particular antimicrobial active which provides complete kill (zero bacterial growth). The MBC of the compositions herein was determined against the bacterium, Staphylococcus aureus (S. aureus—ATCC #6538), a gram positive bacterium, and against Escherichia coli (E. coli—ATCC #8739), a gram negative bacterium. These microorganisms are representative of natural contaminants in many consumer and industrial applications. The bacteria inoculum was prepared by transferring several colonies from a Tryptone Soy Agar (TSA) plate to a saline solution (0.85% NaCl), the bacteria concentration in this saline solution was determined by measuring the % Transmittance at 425 nm and adjusted by either adding more bacteria or more saline solution until the % Transmittance at 425 nm was between 23-25% for S. aureus, and between 30-32% for E. coli, this % transmittance corresponds to a bacteria concentration of 10^8 CFU/ml. […] Each subsequent well (rows B to G) were dosed with 100 μL of the same fabric refresher composition, without the addition of the antimicrobial agent. 100 μL of the fabric refresher composition comprising the antimicrobial active was transferred from row A to row B and mixed. 100 μL of the composition was then transferred from row B to row C and mixed, and the process repeated to row G. As such, the concentration of the antimicrobial agent underwent two-fold dilution in adjacent wells, while the concentration of the other actives in the fabric refresher composition remained constant across all the wells in the same column. 10 μL of the 10^8 CFU/ml bacteria suspension in saline was added to wells A to F of the microtiter plate with row G kept as a nil bacteria control. The final volume in each well was 110 μL, except for row G which comprised 100 μL of the fabric refresher composition and no bacteria suspension. […] The plate was incubated at 32.5° C. for 48 h. MBC concentration is taken as the lowest concentration of the antimicrobial active at which no visible colony growth is observed on the TSA plate. The antibacterial efficacy of the bispyridinium alkane octenidine hydrochloride was compared to that of quaternary ammonium and alkylamine antimicrobial compounds in two fabric freshening compositions.

Assay [2] relates to Staphylococcus aureus (S. aureus—ATCC #6538). The assay is described as follows: Minimum Biocidal Concentration (MBC) in suspension. How it is done: as §1
The test system is the same in assay [3]. The assay can be described thus: Antibacterial efficacy on fabrics (cotton carriers). Particulars: cotton fabric carriers; 0.05% antimicrobial active; 10 mins contact time; 5% horse serum soil load. How it is done:
The bactericidal efficacy on fabric surfaces of fabric refresher compositions comprising different antimicrobial agents was determined against the bacterium, Staphylococcus aureus (S. aureus—ATCC #6538). The bacteria inoculum was prepared by transferring several colonies from a Tryptone Soy Agar (TSA) plate to a saline solution (0.85% NaCl) comprising 5% horse serum as additional soil load, the bacteria concentration in this saline solution was determined by measuring the % Transmittance at 425 nm and adjusted by either adding more bacteria or more saline solution until the % Transmittance at 425 nm is between 23-25% which corresponds to a bacteria concentration of 10^8 CFU/ml.
Fabric carriers, 1 cm×1 cm disks of cotton sterilized by autoclaving, were inoculated with 50 μL of the 10^8 CFU/ml bacteria inoculum and incubated for 30 mins at 32° C. After this incubation period, fabric carriers were treated with 2.5 ml of different fabric refresher compositions comprising no antimicrobial active (reference), or 0.05% of either bispyridinium alkane (octenidine dihydrochloride) or N-(3-aminopropyl)-N-dodecylpropane-1,3-diamine (Lonzabac 12.30) as antimicrobial actives. […] 100 μL of each of the serial dilutions were plated on a TSA plate, plates were incubated at 32° C. for 48 hours, after this incubation time, the number of colonies in each plate was counted. […]

The mark [4] stands for this setting: in fabric freshening Composition 2, 20 minutes contact time.
[5] abbreviates: in fabric freshening Composition 1, 20 minutes contact time.

What is called MBC is the lowest tested concentration that kills the bacteria rather than only halting them. Take `CCCCCCCCCCCCN(CCCN)CCCN` [N-(3-aminopropyl)-N-dodecylpropane-1,3-diamine]: the minimal bactericidal concentration (MBC) in assay [1] (Escherichia coli, ATCC8739, 20 min, in fabric freshening Composition 1, 20 minutes contact time, read-out: MBC (ppm) against E. coli) is 3000 µg/mL (≈ 10 mM); in assay [2] (Staphylococcus aureus, ATCC6538, 20 min, in fabric freshening Composition 1, 20 minutes contact time, read-out: MBC (ppm) against S. aureus), 3000 µg/mL (≈ 10 mM). In assay [1] (setting [4]), the “MBC (ppm) against E. coli” value stood at 3000 ppm. In addition, the “MBC (ppm) against S. aureus” value in assay [2] (setting [4]) came out at 3000 ppm. In assay [3], the “Number of bacteria extracted from treated fabrics” value is “about 10^4 CFU/ml”.

Turning to `CCCCCCCCN=c1ccn(CCCCCCCCCCn2ccc(=NCCCCCCCC)cc2)cc1.Cl.Cl` [Bispyridinium alkane (6), octenidine dihydrochloride], the “MBC (ppm) against E. coli” value in assay [1] (setting [5]) was determined as 500 ppm; in assay [1] (setting [4]), 250 ppm. For the same molecule, the “MBC (ppm) against S. aureus” value was found to be 125 ppm in assay [2] (setting [5]) and 47 ppm in assay [2] (setting [4]). In addition, the “Number of bacteria extracted from treated fabrics” value in assay [3] is “no viable bacteria were recovered”.

Regarding “N-alkyl dimethyl benzyl ammonium chloride [N-alkyl dimethyl benzyl ammonium chloride (10)]”, the “MBC (ppm) against E. coli” value in assay [1] (setting [5]) stood at 1500 ppm. In assay [2] (setting [5]), the “MBC (ppm) against S. aureus” value amounted to 562.5 ppm.

Take “N-alkyl dimethyl benzyl ammonium chloride [N-alkyl dimethyl benzyl ammonium chloride (9)]”: the “MBC (ppm) against E. coli” value in assay [1] (setting [5]) amounted to 3000 ppm. The “MBC (ppm) against S. aureus” value in assay [2] (setting [5]) stood at 375 ppm.
